Data as given in patent publication US20260159512A1, “BCAT2 INHIBITORS” (AGIOS PHARMACEUTICALS, INC., priority 2021, published 2026).
“And” between values parts separate entries of the source, which are not always exact repeats. Equal values may be shown once.

Columns and labels:
Conditions in all cases: average where tested multiple times
BCAT2 [1] = molecular target: T1, BCAT2 (Homo sapiens, UniProt O15382); assay: BCAT2 in vitro enzyme inhibition assay (resazurin/diaphorase-coupled fluorescence); assay type: biochemical
T1 sequence (O15382 28-392): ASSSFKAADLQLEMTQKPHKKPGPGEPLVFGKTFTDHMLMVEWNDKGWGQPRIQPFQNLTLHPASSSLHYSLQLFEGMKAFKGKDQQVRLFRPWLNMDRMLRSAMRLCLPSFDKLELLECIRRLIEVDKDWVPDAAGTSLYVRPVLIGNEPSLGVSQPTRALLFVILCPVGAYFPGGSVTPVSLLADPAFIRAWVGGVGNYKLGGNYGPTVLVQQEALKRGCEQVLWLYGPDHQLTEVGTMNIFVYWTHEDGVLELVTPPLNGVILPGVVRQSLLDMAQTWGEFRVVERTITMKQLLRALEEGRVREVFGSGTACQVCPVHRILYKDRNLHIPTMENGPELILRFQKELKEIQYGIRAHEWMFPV
In short: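 Coupled fluorescence readout: glutamate formed from L-leucine/α-ketoglutarate transamination drives GDH/NAD/diaphorase reduction of resazurin (Ex 540/Em 590). Human BCAT2 was first exposed 1 h at room temperature to compound, top final 100 μM in 3-fold, 10-point series; substrate reaction ran 1 h before SDS quench, in technical duplicate with DMSO max and enzyme-free min controls.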

BCAT2 [2] = molecular target: T1, BCAT2; assay: BCAT2 in vitro cell inhibition using engineered A549 cells (KMV cell assay, 13C6-KMV by LC-MS/MS); assay type: cell-based; parameters: The result was an engineered A549 cell line that expressed endogenous BCAT2; endogenous in cells; host or cells: A549 cells with MUT and BCAT1 knocked out by CRISPR/CAS9; key to BCAT2 Cell Inhibition: A: less than or equal to 0.100 μM; B: greater than 0.100 and less than or equal to 0.500 μM; C: greater than 0.500 and less than or equal to 1.000 μM; d: greater than 1.000 μM; E: no fit
hBCAT1 = molecular target: T2, hBCAT1 (Homo sapiens, UniProt P54687); assay: BCAT1 in vitro enzyme inhibition assay (resazurin/diaphorase-coupled fluorescence); assay type: biochemical
T2 sequence (P54687 1-386): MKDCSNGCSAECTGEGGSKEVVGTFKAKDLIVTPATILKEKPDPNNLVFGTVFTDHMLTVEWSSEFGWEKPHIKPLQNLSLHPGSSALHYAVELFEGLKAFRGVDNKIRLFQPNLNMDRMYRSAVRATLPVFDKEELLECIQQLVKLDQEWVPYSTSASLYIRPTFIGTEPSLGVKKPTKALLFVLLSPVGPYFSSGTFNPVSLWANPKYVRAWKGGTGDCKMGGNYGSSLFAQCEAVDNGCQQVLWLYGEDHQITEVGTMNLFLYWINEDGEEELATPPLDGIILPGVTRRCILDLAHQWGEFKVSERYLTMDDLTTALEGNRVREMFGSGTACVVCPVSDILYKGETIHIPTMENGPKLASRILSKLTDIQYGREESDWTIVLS
In short: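 Human BCAT1 activity read by resazurin/diaphorase-coupled fluorescence. Compounds added from 50× DMSO stocks at 1:50, giving 10-point 3-fold titrations from 100 μM top final concentration. Run in technical duplicate; repeat tests averaged.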

SMILES | IC50 (BCAT2 [1]) | IC50 (BCAT2 [2]) [nM] | IC50 (hBCAT1) [nM] | BCAT2 Cell Inhibition (BCAT2 [2])
Cc1cccnc1-c1cc2c(cn1)nc(-c1ccccc1F)n2[C@@H]1CCC[C@H](NC(=O)c2ncc(Cl)s2)C1 [Example 161, 5-chloro-N-((1S,3R)-3-(2-(2-fluorophenyl)-6-(3-methylpyridin-2-yl)-1H-imidazo[4,5-c]pyridin-1-yl)cyclohexyl)thiazole-2-carboxamide] | ≤ 100 nM | 100 to 500 | 1000 to 5000 | –
CC(C)Cc1nc2cnc(-c3ncnn3C)cc2n1[C@@H]1CCC[C@H](NC(=O)c2ncc(Cl)s2)C1 [Example 164, 5-chloro-N-((1S,3R)-3-(2-isobutyl-6-(1-methyl-1H-1,2,4-triazol-5-yl)-1H-imidazo[4,5-c]pyridin-1-yl)cyclohexyl)thiazole-2-carboxamide] | 100 to 500 nM and 500 to 1000 nM | 100 to 500 | > 5000 | E
CC(C)[C@H](N)c1nc2cnc(-c3ccccn3)cc2n1[C@@H]1CCC[C@H](NC(=O)c2ncc(Cl)s2)C1 [Example 166, N-((1S,3R)-3-(2-((S)-1-amino-2-methylpropyl)-6-(pyridin-2-yl)-1H-imidazo[4,5-c]pyridin-1-yl)cyclohexyl)-5-chlorothiazole-2-carboxamide] | ≤ 100 nM | 100 to 500 | < 500 | –
CC(C)[C@H](O)c1nc2cnc(-c3ncccn3)cc2n1[C@@H]1CCC[C@H](NC(=O)c2ncc(Cl)s2)C1 [Example 171, 5-chloro-N-((1S,3R)-3-(2-((S)-1-hydroxy-2-methylpropyl)-6-(pyrimidin-2-yl)-1H-imidazo[4,5-c]pyridin-1-yl)cyclohexyl)thiazole-2-carboxamide] | ≤ 100 nM | > 1000 | < 500 | –
CC(C)[C@@H](O)c1nc2cnc(-c3ncccn3)cc2n1[C@@H]1CCC[C@H](NC(=O)c2ncc(Cl)s2)C1 [Example 172, 5-chloro-N-((1S,3R)-3-(2-((R)-1-hydroxy-2-methylpropyl)-6-(pyrimidin-2-yl)-1H-imidazo[4,5-c]pyridin-1-yl)cyclohexyl)thiazole-2-carboxamide] | ≤ 100 nM | 500 to 1000 | < 500 | –
C=Cc1csc(C(=O)N[C@H]2CCC[C@@H](n3c(-c4ccccc4F)nc4cnc(-c5nc[nH]n5)cc43)C2)n1 [Example 173, N-((1S,3R)-3-(2-(2-fluorophenyl)-6-(1H-1,2,4-triazol-3-yl)-1H-imidazo[4,5-c]pyridin-1-yl)cyclohexyl)-4-vinylthiazole-2-carboxamide] | ≤ 100 nM | 500 to 1000 | 1000 to 5000 | –
O=C(N[C@H]1CCC[C@@H](n2c(-c3ccccc3F)nc3cnc(-c4ccncc4)cc32)C1)c1ncc(Cl)s1 [Example 178, 5-chloro-N-((1S,3R)-3-(2-(2-fluorophenyl)-6-(pyridin-4-yl)-1H-imidazo[4,5-c]pyridin-1-yl)cyclohexyl)thiazole-2-carboxamide] | ≤ 100 nM | 100 to 500 | 500 to 1000 | –
O=C(N[C@H]1CCC[C@@H](n2c(-c3ccccc3F)nc3cnc(-c4cccnc4)cc32)C1)c1ncc(Cl)s1 [Example 180, 5-chloro-N-((1S,3R)-3-(2-(2-fluorophenyl)-6-(pyridin-3-yl)-1H-imidazo[4,5-c]pyridin-1-yl)cyclohexyl)thiazole-2-carboxamide] | ≤ 100 nM | 100 to 500 | 1000 to 5000 | –
Cn1ccc(-c2cc3c(cn2)nc(-c2ccccc2F)n3[C@@H]2CCC[C@H](NC(=O)c3ncc(Cl)s3)C2)n1 [Example 181, 5-chloro-N-((1S,3R)-3-(2-(2-fluorophenyl)-6-(1-methyl-1H-pyrazol-3-yl)-1H-imidazo[4,5-c]pyridin-1-yl)cyclohexyl)thiazole-2-carboxamide] | ≤ 100 nM | ≤ 100 | < 500 | –
O=C(N[C@H]1CCC[C@@H](n2c(-c3ccccn3)nc3cnc(-c4nc[nH]n4)cc32)C1)c1ncc(Cl)s1 [Example 184, 5-chloro-N-((1S,3R)-3-(2-(pyridin-2-yl)-6-(1H-1,2,4-triazol-3-yl)-1H-imidazo[4,5-c]pyridin-1-yl)cyclohexyl)thiazole-2-carboxamide] | ≤ 100 nM | ≤ 100 | < 500 | –
O=C(N[C@H]1CCC[C@@H](n2c(-c3ccccc3F)nc3cnc(-c4ncccn4)cc32)C1)c1ncc(Cl)s1 [Example 185, 5-chloro-N-((1S,3R)-3-(2-(2-fluorophenyl)-6-(pyrimidin-2-yl)-1H-imidazo[4,5-c]pyridin-1-yl)cyclohexyl)thiazole-2-carboxamide] | ≤ 100 nM | ≤ 100 | < 500 | –

Continued, values first:

IC50 (BCAT2 [1]) | IC50 (BCAT2 [2]) [nM] | IC50 (hBCAT1) [nM] | BCAT2 Cell Inhibition (BCAT2 [2]) | SMILES
≤ 100 nM | ≤ 100 | < 500 | – | CC(C)(C)Cc1nc2cnc(-c3nc[nH]n3)cc2n1[C@@H]1CCC[C@H](NC(=O)c2ncc(Cl)s2)C1 [Example 162, 5-chloro-N-((1S,3R)-3-(2-neopentyl-6-(1H-1,2,4-triazol-3-yl)-1H-imidazo[4,5-c]pyridin-1-yl)cyclohexyl)thiazole-2-carboxamide]
≤ 100 nM | ≤ 100 | < 500 | – | CC(C)Cc1nc2cnc(-c3nccs3)cc2n1[C@@H]1CCC[C@H](NC(=O)c2ncc(Cl)s2)C1 [Example 163, 5-chloro-N-((1S,3R)-3-(2-isobutyl-6-(thiazol-2-yl)-1H-imidazo[4,5-c]pyridin-1-yl)cyclohexyl)thiazole-2-carboxamide]
≤ 100 nM | ≤ 100 | < 500 | – | Cc1nc(-c2cc3c(cn2)nc(CC(C)C)n3[C@@H]2CCC[C@H](NC(=O)c3ncc(Cl)s3)C2)n[nH]1 [Example 165, 5-chloro-N-((1S,3R)-3-(2-isobutyl-6-(5-methyl-1H-1,2,4-triazol-3-yl)-1H-imidazo[4,5-c]pyridin-1-yl)cyclohexyl)thiazole-2-carboxamide]
≤ 100 nM | ≤ 100 | < 500 | – | O=C(N[C@H]1CCC[C@@H](n2c(-c3ccccc3F)nc3cnc(-c4cc(F)ccn4)cc32)C1)c1ncc(Cl)s1 [Example 168, 5-chloro-N-((1S,3R)-3-(2-(2-fluorophenyl)-6-(4-fluoropyridin-2-yl)-1H-imidazo[4,5-c]pyridin-1-yl)cyclohexyl)thiazole-2-carboxamide]
≤ 100 nM | ≤ 100 | < 500 | – | O=C(N[C@H]1CCC[C@@H](n2c(-c3ccccc3F)nc3cnc(-c4ncccc4F)cc32)C1)c1ncc(Cl)s1 [Example 169, 5-chloro-N-((1S,3R)-3-(2-(2-fluorophenyl)-6-(3-fluoropyridin-2-yl)-1H-imidazo[4,5-c]pyridin-1-yl)cyclohexyl)thiazole-2-carboxamide]
≤ 100 nM | ≤ 100 | < 500 | – | O=C(N[C@H]1CCC[C@@H](n2c(-c3ccccc3F)nc3cnc(-c4ccc(F)cn4)cc32)C1)c1ncc(Cl)s1 [Example 170, 5-chloro-N-((1S,3R)-3-(2-(2-fluorophenyl)-6-(5-fluoropyridin-2-yl)-1H-imidazo[4,5-c]pyridin-1-yl)cyclohexyl)thiazole-2-carboxamide]
≤ 100 nM | ≤ 100 | < 500 | – | O=C(N[C@H]1CCC[C@@H](n2c(-c3ncccc3F)nc3cnc(-c4nc[nH]n4)cc32)C1)c1ncc(Cl)s1 [Example 175, 5-chloro-N-((1S,3R)-3-(2-(3-fluoropyridin-2-yl)-6-(1H-1,2,4-triazol-3-yl)-1H-imidazo[4,5-c]pyridin-1-yl)cyclohexyl)thiazole-2-carboxamide]
≤ 100 nM | ≤ 100 | < 500 | – | COc1cccc(-c2cc3c(cn2)nc(-c2ccccc2F)n3[C@@H]2CCC[C@H](NC(=O)c3ncc(Cl)s3)C2)n1 [Example 179, 5-chloro-N-((1S,3R)-3-(2-(2-fluorophenyl)-6-(6-methoxypyridin-2-yl)-1H-imidazo[4,5-c]pyridin-1-yl)cyclohexyl)thiazole-2-carboxamide]
